Measurements taken from patent publication US11214548B2, “Cannabinoid receptor modulators” (priority 2009, dated 2022).

Columns and labels:
[1] = system: Streptozotocin-Induced Painful Diabetic Peripheral Neuropathy (PDPN) Model; assay: Streptozotocin-induced painful diabetic peripheral neuropathy (PDPN) model; format: in vivo, male Sprague-Dawley rats; conditions: 10 mg/kg orally in 0.5% methylcellulose; 1, 4 and 6 hours post-dosing, FIG. 17 and FIG. 18
Method: Example 12: Streptozotocin-Induced Painful Diabetic Peripheral Neuropathy (PDPN) Model
Male Sprague-Dawley rats were injected intraperitoneally with 50 mg/kg of streptozotocin (STZ) in sodium citrate buffer. 10% sucrose water was provided ad libitum for the first 48 hours post-STZ followed by regular drinking water. Rats were monitored once weekly for blood glucose levels and body weights. Development of tactile allodynia over time was analyzed using Von Frey filaments and a 50% withdrawal threshold was determined using Dixon's up-down procedure. […] Tactile allodynia was evaluated at 1, 4 and 6 hours post-dosing.

[2] = system: allergic contact dermatitis; conditions: mouse, injection; cited from earlier work
RPE cells = conditions: cited from earlier work
vagus nerve preparations = conditions: guinea pig and human vagus nerve preparations in vitro; cited from earlier work
cough = conditions: conscious guinea-pigs, administration prior to citric acid; cited from earlier work
[3] = system: paclitaxel model of cancer pain; assay: Paclitaxel-induced allodynia in Sprague Dawley rats; format: in vivo, male Sprague Dawley rats; conditions: 10 mg/kg orally
Method: Example 8: Paclitaxel-Induced Allodynia in Sprague Dawley Rats
Male Sprague Dawley rats [200-250 g] (Harlan Laboratories Inc., Livermore, Calif.) were housed three per cage and maintained in a humidity-controlled (40-60%) and temperature-controlled (68-72° F.) facility on a 12 h:12 h light/dark cycle (lights on at 6:30 am) with free access to food (Harlan Teklad, Orange, Calif., Rodent Diet 8604) and water. Rats were allowed one week of habituation to the animal facility before starting treatment.
Rats were treated intraperitoneally, with 2 mg/kg of paclitaxel (Sigma Aldrich, Saint Louis, Mo.) in 10% Cremophor vehicle (500 μL) on days 0, 2, 4, and 6.
Tactile allodynia was tested using von Frey filaments. Briefly, the von Frey assay was performed using the standardized up down method with von Frey filaments, that determine the tactile sensitivity of the paw. By applying the increasingly or decreasingly thicker filaments to the paw in a logarithmic scale of actual force, a linear scale of perceived intensity is determined.
Eight days after the start of paclitaxel dosing, a baseline measurement (von Frey assay) was performed prior to dosing of compounds. […] As a positive control, rats were dosed intraperitoneally with 100 mg/kg gabapentin in water. The dosing volume for oral and peritoneal treatment was 500 μL. […]

[4] = system: MIA model of osteoarthritis; assay: MIA model of osteoarthritis pain (von Frey, weight distribution, grip strength); format: in vivo, male Sprague Dawley rats; conditions: 3, 10 and 30 mg/kg orally, one hour after dosing, FIG. 2
Text: Example 5: Effect of Compounds on Osteoarthritis Pain
Injection of monosodium iodoacetate (MIA) into a joint (Kalbhen, 1987) inhibits the activity of glyceraldehyde-3-phosphate dehydrogenase in chondrocytes, resulting in disruption of glycolysis and eventually in cell death. The progressive loss of chondrocytes results in histological and morphological changes of the articular cartilage, closely resembling those seen in osteoarthritis patients.
The osteoarthritis was induced in 200 g male Sprague Dawley rats. […]
Typically during disease progression, there was an inflammation period of 0-7 days post-intra-articular injection followed by progressive degeneration of the cartilage and subchondral bone from days 14-55. […] Tactile allodynia was measured via von Frey assay, hind limb paw weight distribution was monitored using an incapacitence tester (Columbus Instruments, Columbus, Ohio, USA) and hind limb grip strength was measured using a grip strength meter (Columbus Instruments, Columbus, Ohio, USA). […] Hind paw weight distribution was determined by placing rats in a chamber so that each hind paw rests on a separate force plate of the incapacitence tester. The force exerted by each hind limb (measured in grams) is averaged over a 3 second period. Three measurements were taken for each rat, and the change in hind paw weight distribution calculated. […]

[5] = system: FCA-induced hyperalgesia model of inflammatory pain; assay: FCA-induced hyperalgesia in rats; format: in vivo, male Sprague Dawley rats; conditions: 0.1, 1, 3, 10 and 30 mg/kg orally, 1 h post dosing, FIG. 1
Method: Example 7: Effect of Compounds on FCA-Induced Hyperalgesia in Rats
Male Sprague Dawley rats from Harlan (200-225 g when received) were used. Upon arrival, rats were housed 4 per cage in shoe-box polycarbonate cages with wire tops, wood chip bedding and suspended food and water bottles. Animals were acclimated for 5-7 days prior to being injected with Freund's complete adjuvant (FCA) (Sigma; catalog #5881).
2 days (48 h) before testing compounds, baseline readings of all rats were taken right before FCA injection. Rats were then injected with 50 μL FCA containing 1 mg/mL Mtb (Mycobacterium tuberculosis) in right hind footpad under inhalation anesthesia (isoflurane). 48 hours after FCA injection, readings were taken as pre-dosing baseline and then rats were dosed orally with 0.5 mL of vehicle or compound (0.5 mL per 250 g rat). Readings were taken again at 1 h post dosing. All readings were taken with an Analgesy-Meter (Ugo Basile) which measures mechanical hyperalgesia via paw pressure.
FCA-induced hyperalgesia was tested with an Analgesy-Meter. Briefly, the Analgesy Meter applied an increasing pressure to the right hind paw. The paw withdrawal threshold was the pressure leading to withdrawal.
Meanwhile a group of rats were dosed orally with 50 mg/kg of Diclofenac as a positive control. Readings were taken again at 1 h post dosing. Dosing volume was 500 μL per 250 g rat.

[6] = system: bovine nasal cartilage explants; conditions: bovine nasal cartilage explants in vitro; cited from earlier work
[7] = system: histamine-induced responses; conditions: human skin, topical administration; cited from earlier work
[8] = system: capsaicin-induced hyperalgesia and allodynia; conditions: humans, topical administration; cited from earlier work
hyperalgesia = conditions: rodents, systemic delivery; cited from earlier work
[9] = system: hypersensitivity following ligation of spinal nerves; conditions: rats, cited from earlier work
acute and chronic pain = conditions: animal studies; cited from earlier work
CB1 = conditions: exogenous administration; cited from earlier work
atherosclerosis = conditions: cited from earlier work
EAE = conditions: cited from earlier work
[10] = system: bone marrow-derived osteoblasts/stromal cells; conditions: in vitro; cited from earlier work
[11] = system: ovariectomy-induced bone loss; conditions: in vivo; cited from earlier work

## CC(C)(C)[C@@H](CO)NC(=O)c1nn(-c2c[n+]([O-])ccn2)c2c1C[C@@H]1C[C@H]21 [Compound 699, (1aS,5aS)-2-(4-Oxy-pyrazin-2-yl)-1a,2,5,5a-tetrahydro-1H-2,3-diaza-cyclopropa[a]pentalene-4-carboxylic Acid ((S)-1-Hydroxymethyl-2,2-dimethyl-propyl)-amide]
[1]
  analgesic efficacy (tactile allodynia, 50% withdrawal threshold): robust and sustained analgesic efficacy over 6 hours

## CC(C)(NC(=O)c1nn(-c2c[n+]([O-])ccn2)c2c1C[C@@H]1C[C@H]21)C(F)(F)F [Compound 919, (1aS,5aS)-2-(4-Oxy-pyrazin-2-yl)-1a,2,5,5a-tetrahydro-1H-2,3-diaza-cyclopropa[a]pentalene-4-carboxylic acid (2,2,2-trifluoro-1,1-dimethyl-ethyl)-amide]
[1]
  analgesic efficacy (tactile allodynia, 50% withdrawal threshold): robust and sustained analgesic efficacy over 6 hours

## Cc1c(C(=O)NN2CCCCC2)nn(-c2ccc(Cl)cc2Cl)c1-c1ccc(Cl)cc1 [Compound S141716A, S141716A]
[2]
  cutaneous inflammation and the pruritis (itch) associated with it: exacerbates

## CCCn1c(C)c(C(=O)c2cccc3ccccc23)c2ccccc21 [JWH015]
RPE cells
  protection of RPE cells from oxidative damage: comparable protection

## CCCC(C)(C)c1ccc2c(c1)OC(C)(C)[C@@H]1CC=C(C)C[C@@H]21 [JWH133]
Vagus nerve preparations
  capsaicin-, PGE2- and hypertonic saline-induced depolarization: reduces
cough
  cough: significantly reduces

## CC(C)(CO)NC(=O)c1nn(-c2ccc(F)cc2F)c2c1C[C@H]1C[C@@H]21 [Compound 493, (1aR,5aR)-2-(2,4-Difluoro-phenyl)-1a,2,5,5a-tetrahydro-1H-2,3-diaza-cyclopropa[a]pentalene-4-carboxylic Acid (2-Hydroxy-1,1-dimethyl-ethyl)-amide]
[3]; von Frey time course
  time of maximum efficacy post-dosing: 1 h
[3]; 30, 60 and 180 minutes after dosing, FIG. 3
  paw withdrawal threshold (PWT) in comparison with vehicle and gabapentin: increase in paw withdrawal threshold (PWT)
[4]
  paw withdrawal threshold (PWT) in comparison with vehicle: Increase in paw withdrawal threshold (PWT)
[5]
  paw withdrawal threshold (PWT) in comparison with the vehicle: increase in paw withdrawal threshold (PWT)

## CCCCCCC(C)(C)c1cc(O)c2c(c1)OC(C)(C)[C@@H]1CC=C(CO)C[C@@H]21 [HU-210]
[6]
  IL-1alpha-stimulated proteoglycan and collagen degradation: significantly inhibit
[7]
  histamine-induced responses: reduces
[8]
  capsaicin-induced hyperalgesia and allodynia: attenuates

## CN1CCCCC1Cn1cc(C(=O)c2cc([N+](=O)[O-])ccc2I)c2ccccc21 (centres unmarked) [AM1241]
hyperalgesia
  hyperalgesia induced in the carrageenan, capsaicin, and formalin models: suppresses
[9]; local (subcutaneous) or systemic administration, chronic constriction injury model
  tactile and thermal hypersensitivity: reverses

## CCCCCCC(C)(C)c1ccc([C@@H]2C[C@H](O)CC[C@H]2CCCO)c(O)c1 [CP55,940]
Vagus nerve preparations
  capsaicin-, PGE2- and hypertonic saline-induced depolarization: reduces
RPE cells
  protection of RPE cells from oxidative damage: significantly protects
Acute and chronic pain
  effect against acute and chronic pain from chemical, mechanical, and thermal pain stimuli: effective

## CCCCC/C=C\C/C=C\C/C=C\C/C=C\CCCC(=O)NCCCl [arachidonyl-2-chloroethylamide]
CB1
  pain: reduces

## COc1ccc(C(=O)c2c(C)n(CCN3CCOCC3)c3cc(I)ccc23)cc1 [AM630]
[9]
  inhibition of the AM1241 effect on tactile and thermal hypersensitivity: inhibited

## SR144528
[2]
  cutaneous inflammation and the pruritis (itch) associated with it: exacerbates
atherosclerosis; in vitro and in vivo
  blockade of the THC effect on atherosclerosis: completely blocks
EAE; EAE mouse model
  blockade of the WIN 55212-2 effect on leukocyte rolling and adhesion: blocked

## CCCCCc1cc(O)c2c(c1)OC(C)(C)[C@@H]1CCC(C)=C[C@@H]21 [THC]
[2]
  cutaneous inflammation and the pruritis (itch) associated with it: reduces
atherosclerosis; ApoE knockout mice
  progression of atherosclerosis: reduces
EAE; EAE mouse model
  severity of clinical disease: significantly inhibits
Acute and chronic pain
  effect against acute and chronic pain from chemical, mechanical, and thermal pain stimuli: effective

## CCCCCCC(C)(C)c1cc(OC)c([C@@H]2C=C(CO)[C@@H]3C[C@H]2C3(C)C)c(OC)c1 [HU-308]
[10]
  endocortical osteoblast numbers and activity: enhances
  proliferation of osteoclast precursors: inhibiting
EAE; EAE model
  recruitment of immature myeloid cells and T cells, microglial and infiltrating myeloid cell proliferation, and axonal loss: markedly reduces
[11]
  ovariectomy-induced bone loss: attenuates

## COc1ccc2c(c1)c(CCN1CCOCC1)c(C)n2C(=O)c1cccc(Cl)c1Cl [GW405833]
[9]; administered systemically
  hypersensitivity to mechanical stimuli: significantly reverses
